Experimental data reported in patent US12350270B2, “Antimalarial agents” (Merck Sharp & Dohme LLC, priority 2019, dated 2025).

Each compound was assayed on parasites (ring stage, in human red blood cell culture) (assay: Parasite LDH growth assay (antiparasite potency, Parasite Assay)). Details: 0.7% rings, 2% haematocrit, 72 hours at 37° C., LDH readout of parasite growth.
Type: cell-based, Plasmodium falciparum
Method in brief: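 Growth was read by an LDH assay after a freeze–thaw cycle (−80 °C overnight, 4 h thaw at RT). Before that, parasites grew with compound for 72 h at 37 °C under gassed, humidified conditions. The input was a ring-stage culture adjusted to 0.7% parasitemia and 2% haematocrit in serum (5%)/albumax (0.5%)-supplemented RPMI-Hepes.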
Work on `CC1(C)CC(=O)N([C@@H]2CC(C)(C)Oc3ccc(C(=O)N[C@@H]4c5ccccc5OC[C@H]4O)cc32)C(=N)N1` [Example 56A, (R)-N-((3S,4R)-3-hydroxychroman-4-yl)-4-(2-imino-4,4-dimethyl-6-oxotetrahydropyrimidin-1(2H)-yl)-2,2-dimethylchromane-6-carboxamide] yielded an EC50 of 26.9 nM. `CCC1(CC)CC(=O)N([C@@H]2CCOc3ccc(C(=O)NC4c5ccccc5OCC4O)cc32)C(=N)N1` (single isomer, unassigned) [Example 8B] gave an EC50 of 22 nM. With `CCC1(CC)CC(=O)N([C@@H]2CCOc3ccc(C(=O)NC4c5ccccc5OC4(C)COC)cc32)C(=N)N1` (single isomer, unassigned) [Example 64C] the EC50 was 64 nM. Work on `CC[C@]1(C)CC(=O)N([C@@H]2CCOc3ccc(C(=O)NC4c5c(F)cccc5OCC4(C)O)cc32)C(=N)N1` (single isomer, unassigned) [Example 193B] yielded an EC50 of 0.8 nM. Compound `COCC1(C)Oc2ccc(C(=O)N[C@@H]3c4ccccc4OC(C)(C)[C@H]3O)cc2C1N1C(=N)NC(C)(C)CC1=O` (stereo partly drawn) [Example 257, N-[(3S,4R)-3-hydroxy-2,2-dimethyl-chroman-4-yl]-3-(2-imino-4,4-dimethyl-6-oxo-hexahydropyrimidin-1-yl)-2-(methoxymethyl)-2-methyl-3H-benzofuran-5-carboxamide] has an EC50 of 189 nM. In the case of `CC1(C)CC(=O)N([C@@H]2CCOc3ccc(C(=O)NC4c5ccccc5OCC4(O)C(F)(F)F)cc32)C(=N)N1` (single isomer, unassigned) [Example 234C], the EC50 is reported as 43.2 nM. With `CC[C@]1(C)CC(=O)N([C@@H]2CCOc3ccc(C(=O)NC4c5c(F)cccc5OCC4(C)O)cc32)C(=N)N1` (single isomer, unassigned) [Example 193A] the EC50 was 96.4 nM. With `CCC1(CC)CC(=O)N(C2c3cc(C(=O)N[C@@H]4c5ccccc5OC(C)(C)[C@H]4O)ccc3CC2OC)C(=N)N1` (single isomer, unassigned) [Example 251A] the EC50 was 0.4 nM.

Same assay, conditions: Plasmodium falciparum, Erythrocyte, 72 h, 0.7% rings, 2% haematocrit, 72 hours at 37° C., LDH readout of parasite growth
In the case of `CCC1(CC)CC(=O)N([C@@H]2CCOc3ccc(C(=O)N[C@@H]4c5ccccc5C[C@H]4N)cc32)C(=N)N1` [Example 97, (4R)-N-[(1R,2R)-2-aminoindan-1-yl]-4-(4,4-diethyl-2-imino-6-oxo-hexahydropyrimidin-1-yl)chromane-6-carboxamide], the EC50 is reported as 19 nM. In the case of `CCC1(CC)CC(=O)N([C@@H]2CCOc3ccc(C(=O)N[C@@H](CO)c4ccccc4)cc32)C(=N)N1` [Example 92, (4R)-4-(4,4-diethyl-2-imino-6-oxo-hexahydropyimidin-1-yl)-N-[(1R)-2-hydroxy-1-phenyl-ethyl]chromane-6-carboxamide], the EC50 is reported as 97.2 nM. In the case of `CC1(C)CC(=O)N([C@@H]2CCc3ccc(C(=O)N[C@@H]4c5ccccc5C[C@H]4O)cc32)C(=N)N1` [Example 78, (3R)-N-[(1R,2R)-2-hydroxyindan-1-yl]-3-(2-imino-4,4-dimethyl-6-oxo-hexahydropyrimidin-1-yl)indane-5-carboxamide], the EC50 is reported as 8.9 nM. `CCC1(CC)CC(=O)N([C@@H]2CCOc3ccc(C(=O)N[C@@H](C)c4ccccc4)cc32)C(=N)N1` [Example 4A, (R)-4-(4,4-diethyl-2-imino-6-oxotetrahydropyrimidin-1(2H)-yl)-N-((S)-1-phenylethyl)chromane-6-carboxamide] showed an EC50 of 87 nM. In the case of `CC(C)[C@]1(C)CC(=O)N([C@@H]2CC(C)(C)Oc3ccc(C(=O)N[C@@H]4c5ccccc5OC(C)(C)[C@H]4O)cc32)C(=N)N1` [Example 38A, (R)-N-((3 S,4R)-3-hydroxy-2,2-dimethylchroman-4-yl)-4-((S)-2-imino-4-isopropyl-4-methyl-6-oxotetrahydropyrimidin-1(2H)-yl)-2,2-dimethylchromane-6-carboxamide], the EC50 is reported as 2.8 nM. In the case of `CCC1(CC)CC(=O)N([C@@H]2CCOc3ccc(C(=O)NC(CO)c4ccccc4OC)cc32)C(=N)N1` (stereo partly drawn) [Example 150, (4R)-4-(4,4-diethyl-2-imino-6-oxo-hexahydropyrimidin-1-yl)-N-[2-hydroxy-1-(2-methoxyphenyl)ethyl]chromane-6-carboxamide], the EC50 is reported as 49 nM. `CCC1(CC)CC(=O)N([C@@H]2CCCOc3ccc(C(=O)N[C@@H]4c5ccccc5C[C@H]4O)cc32)C(=N)N1` [Example 132, (5R)-5-(4,4-diethyl-2-imino-6-oxo-hexahydropyrimidin-1-yl)-N-[(1R,2R)-2-hydroxyindan-1-yl]-2,3,4,5-tetrahydro-1-benzoxepine-7-carboxamide] gave an EC50 of 1.6 nM. For `CC[C@]1(C)CC(=O)N([C@H]2c3cc(C(=O)N[C@@H]4c5ccccc5C[C@H]4O)ccc3OC[C@@H]2COC)C(=N)N1` [Example 174, (3S,4R)-4-[(4R)-4-ethyl-2-imino-4-methyl-6-oxo-hexahydropyrimidin-1-yl]-N-[(1R,2R)-2-hydroxyindan-1-yl]-3-(methoxymethyl)chromane-6-carboxamide], the EC50 was 1.9 nM. For `CCC1(CC)CC(=O)N([C@@H]2CCOc3ccc(C(=O)NC4c5ccccc5CC4(F)F)cc32)C(=N)N1` (stereo partly drawn) [Example 152, (4R)-4-(4,4-diethyl-2-imino-6-oxo-hexahydropyrimidin-1-yl)-N-(2,2-difluoroindan-1-yl)chromane-6-carboxamide], the EC50 was 7.7 nM. In the case of `CCC1(CC)CC(=O)N(C2CCOc3ccc(C(=O)N[C@@H]4c5ccccc5OC(C)(C)[C@H]4O)cc32)C(=N)N1` (stereo partly drawn) [Example 2A, 4-(4,4-diethyl-2-imino-6-oxotetrahydropyrimidin-1(2H)-yl)-N-((3S,4R)-3-hydroxy-2,2-dimethylchroman-4-yl)chroman-6-carboxamide], the EC50 is reported as 0.5 nM. For `COCC1(C)CC(N2C(=N)NC(C)(C)CC2=O)c2cc(C(=O)N[C@@H]3c4ccccc4C[C@]3(C)O)ccc2O1` (stereo partly drawn) [Example 206, N-[(1R,2S)-2-hydroxy-2-methyl-indan-1-yl]-4-(2-imino-4,4-dimethyl-6-oxo-hexahydropyrimidin-1-yl)-2-(methoxymethyl)-2-methyl-chromane-6-carboxamide], the EC50 was 66 nM. Compound `CCC1(CC)CC(=O)N([C@H]2c3cc(C(=O)N[C@@H]4c5ccccc5C[C@H]4O)ccc3O[C@]2(C)COC)C(=N)N1` [Example 75B, (2S,3S)-3-(4,4-diethyl-2-imino-6-oxotetrahydropyrimidin-1(2H)-yl)-N-((1R,2R)-2-hydroxy-2,3-dihydro-1H-inden-1-yl)-2-(methoxymethyl)-2-methyl-2,3-dihydrobenzofuran-5-carboxamide] has an EC50 of 9.5 nM. Compound `CCC1(CC)CC(=O)N([C@@H]2C[C@@H](C)Oc3ccc(C(=O)N[C@@H]4c5ccccc5C[C@H]4O)cc32)C(=N)N1` [Example 128, (2R,4R)-4-(4,4-diethyl-2-imino-6-oxo-hexahydropyrimidin-1-yl)-N-[(1R,2R)-2-hydroxyindan-1-yl]-2-methyl-chromane-6-carboxamide] has an EC50 of 2.8 nM. `CC1(C)CC(=O)N([C@@H]2CC(C)(C)Oc3ccc(C(=O)N[C@@H]4c5ccccc5C[C@H]4O)cc32)C(=N)N1` [Example 48A, (R)-N-((lR,2R)-2-hydroxy-2,3-dihydro-1H-inden-l-yl)-4-(2-imino-4,4-dimethyl-6-oxotetrahydropyrimidin-1(2H)-yl)-2,2-dimethylchromane-6-carboxamide] gave an EC50 of 37.5 nM. Work on `CCC1(CC)CC(=O)N([C@@H]2CCCc3ccc(C(=O)N[C@@H]4c5ccccc5C[C@@]4(C)O)cc32)C(=N)N1` [Example 114, (4R)-4-(4,4-diethyl-2-imino-6-oxo-hexahydropyrimidin-1-yl)-N-[(1R,2R)-2-hydroxy-2-methyl-indan-1-yl]tetralin-6-carboxamide] yielded an EC50 of 1.8 nM.
